Data: publication PMC9786103, “Potent and Selective Inhibition of CYP1A2 Enzyme by Obtusifolin and Its Chemopreventive Effects” (Pharmaceutics, 2022)
Where two headings read alike, the source gives them in different places.

Key:
CYP1A1 = conditions: cited from earlier work
CYP1A2 [1] = molecular target: T1, CYP1A2 (Homo sapiens, UniProt P05177); experiment: CYP1A2-mediated phenacetin O-deethylase (POD) activity in pooled human liver microsomes
T1 sequence (P05177 1-516): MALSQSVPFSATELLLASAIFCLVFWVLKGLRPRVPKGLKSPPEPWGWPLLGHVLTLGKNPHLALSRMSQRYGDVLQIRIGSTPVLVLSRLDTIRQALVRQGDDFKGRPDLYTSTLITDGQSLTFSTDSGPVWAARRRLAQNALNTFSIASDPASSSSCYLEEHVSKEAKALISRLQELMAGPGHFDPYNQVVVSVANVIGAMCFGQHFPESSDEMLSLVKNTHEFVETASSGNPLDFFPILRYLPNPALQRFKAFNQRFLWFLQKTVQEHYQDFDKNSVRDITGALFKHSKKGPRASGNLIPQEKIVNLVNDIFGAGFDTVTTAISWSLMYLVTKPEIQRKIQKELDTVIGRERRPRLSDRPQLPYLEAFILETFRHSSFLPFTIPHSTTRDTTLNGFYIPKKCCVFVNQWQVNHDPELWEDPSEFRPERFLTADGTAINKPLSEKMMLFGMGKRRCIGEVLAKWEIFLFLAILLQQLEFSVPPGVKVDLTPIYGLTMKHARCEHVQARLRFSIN
Procedure: The inhibitory potential of five major bioactive compounds from Cassiae semen against CYP1A2-mediated phenacetin O-deethylase (POD) activity was evaluated using previously developed methods with minor modifications. Briefly, the compounds were dissolved in methanol. The incubation mixtures containing pHLMs (0.25 mg/mL), phenacetin (100 µM), and inhibitor (0, 0.5, 2, 5, 20, or 50 µM) were pre-incubated at 37 °C for 5 min. An NADPH-generating system (NGS, 1.3 mM β-NADP^+, 3.3 mM G6P, 1.0 U/mL G6PDH, and 3.3 mM magnesium chloride) was introduced after pre-incubation to initiate the reaction, and further incubated for 15 min. The reaction was quenched by the addition of 50 µL ice-cold acetonitrile containing internal standard (IS; 7nM trimipramine). Aliquots of supernatants were analyzed by liquid chromatography–tandem mass spectrometry (LC-MS/MS, LCMS 8060 system, Shimadzu, Kyoto, Japan). All microsomal incubations were repeated three times.
The inhibitory potential of obtusifolin against the biotransformation of eight P450 probe substrates was examined using previously reported methods with slight changes. The following P450 isoform-specific substrates were used: coumarin (CYP2A6); bupropion (CYP2B6); amodiaquine (CYP2C8); tolbutamide (CYP2C9); omeprazole (CYP2C19); dextromethorphan (CYP2D6); chlorzoxazone (CYP2E1); and midazolam (CYP3A). Mixtures of pooled HLM, P450 substrates, and obtusifolin (0, 0.05, 0.2, 0.5, 2, 5, or 10 µM for CYP1A2; and 0, 0.5, 2, 5, 20, or 50 µM for the other P450 isoforms) were pre-incubated (5 min, 37 °C). NGS was introduced to start the reaction, which was followed by an additional incubation (15 min). Following reaction termination, aliquots of the supernatants were analyzed with LC-MS/MS.
Reverse phase column (Kinetex XB-C18, 100 × 2.10 mm; Phenomenex, Torrance, CA, USA) and triple-quadrupole mass spectrometer (LCMS 8060, Shimadzu, Kyoto, Japan) with an ultra high-performance LC system (Nexera X2, Shimadzu) analyze all the metabolites. Mobile phases were 0.1% formic acid in water (A) and 0.1% formic acid in acetonitrile (B). The elution condition was as follows: 0–0.5 min (B: 8%), 0.5–5 min (B: 8%→60%), 5–6 min (B: 60%), 6–6.1 min (B: 60%→8%), and 6.1–10 min (B: 8%) for the analysis of metabolites of the nine P450 substrates; and 0–1 min (B: 5%), 1–5 min (B: 5%→90%), and 5.1–7 min (B: 90%→5%) for the analysis of resorufin. Electrospray ionization was performed in the positive- and negative-ion modes at 4.0 and −3.5 kV, respectively. For each metabolite, quantitation was carried out in selected reaction monitoring (SRM) mode using the following precursor-to-product ion transition: m/z 152 > 110 for acetaminophen (CYP1A2), m/z 214 > 186 for resorufin (CYP1A1 and CYP1A2), m/z 163 > 107 for 7-hydroxycoumarin (CYP2A6), m/z 256 > 238 for 6-hydroxybupropion (CYP2B6), m/z 328 > 283 for N-desethylamodiaquine (CYP2C8), m/z 287 > 89 for 5-hydroxytolbutamide (CYP2C9), m/z 362 > 214 for 4-hydroxyomeprazole ([…]), m/z 258 > 157 for dextrorphan (CYP2D6), m/z 184 > 120 for 6-hydroxychlorzoxazone (CYP2E1), m/z 342 > 203 for 1′-hydroxymidazolam (CYP3A), and m/z 295 > 100 for trimipramine (IS).
WinNonlin software (Pharsight, Mountain View, CA, USA) was used to calculate IC50 values. Based on Lineweaver–Burk double reciprocal plots, secondary plots of Lineweaver–Burk plots versus obtusifolin concentrations, and visual inspection of Dixon plots, the type of inhibition and apparent kinetic parameters for inhibitory activity (Ki) were estimated.

rCYP1A2 = system: rCYP1A2; design: method as in PMID 27633141; conditions: rCYP1A2, melatonin probe substrate; read-out: IC50 against rCYP1A2; cited from earlier work
[2] = system: CYP2C9, CYP2C19, CYP2D6, and CYP3A; conditions: cited from earlier work
CYP1A1 and CYP1A2 = conditions: cited from earlier work
CYP1A2 [3] = molecular target: T1, CYP1A2; conditions: cited from earlier work
CYP1A2 [4] = conditions: cited from earlier work
[5] = design: method as in PMID 21945452; conditions: humans, cited from earlier work
CYP1A2 [6] = system: CYP1A2; design: method as in PMID 18814214; conditions: rat liver microsomes; read-out: Ki, CYP1A2-catalyzed POD activity; cited from earlier work
[7] = read-out: IC50, CYP2C9, CYP2C19, CYP2D6, and CYP3A (other P450 isoforms), HLMs
[8] = read-out: IC50, CYP1A2-mediated POD, HLMs

SMILES: O=c1cc(-c2ccccc2)oc2cc(O)ccc12 [7-hydroxyflavone]
- Selectivity for CYP1A1 inhibition over CYP1A2 (CYP1A1): six-fold

SMILES: Cc1cc(O)c2c(c1)C(=O)c1cccc(O)c1C2=O [Chrysophanol, chrysophanol]
- IC50 (CYP1A2 [1]): 1990 ± 230 nM
- IC50 (rCYP1A2): 290 nM

SMILES: Cc1cc(O)c2c(c1)C(=O)c1cc(O)cc(O)c1C2=O [Emodin, emodin]
- IC50 ([2]; microsomes): > 9600 nM
- IC50 (CYP1A2 [1]): 790 ± 260 nM
- IC50 (CYP1A1 and CYP1A2): < 500 nM
- IC50 (CYP1A2 [3]; microsomes): 500 nM

SMILES: COc1cc(O)c2c(c1)C(=O)c1cc(C)cc(O)c1C2=O [Physcion, physcion]
- IC50 (CYP1A2 [1]): 2160 ± 480 nM
- IC50 (rCYP1A2): 880 nM

SMILES: COc1cc(O)c2c(O)c3c(=O)cc(C)oc3cc2c1 [Rubrofusarin, rubrofusarin]
- IC50 (CYP1A2 [1]): 6330 ± 1380 nM

SMILES: C[C@H]1COc2c(N3CCN(C)CC3)c(F)c(N)c3c(=O)c(C(=O)O)cn1c23 [antofloxacin]
- Time dependence of CYP1A2 inhibition (CYP1A2 [4]): time-dependent inhibitors

SMILES: COc1cc(/C=C/C(=O)CC(=O)/C=C/c2ccc(O)c(OC)c2)ccc1O [curcumin]
- IC50 (CYP1A1): 740 nM

SMILES: COc1c2ccoc2c(OC)c2oc(=O)ccc12 [isopimpinellin]
- IC50 (CYP1A2 [4]): 460 nM
- Ki (CYP1A2 [4]): 1200 nM
- Time dependence of CYP1A2 inhibition (CYP1A2 [4]): time-dependent inhibitors

SMILES: C[C@H](Cc1ccc2c(c1)OCO2)[C@@H](C)Cc1ccc2c(c1)OCO2 [machilin A]
- Ki (CYP1A2 [4]; read-out: Ki, CYP1A2): 710 nM

SMILES: COC(=O)c1c2c(c3ccccc3c1O)OC(C)(C)C=C2 [mollugin]
- IC50 for CYP1A2-mediated POD in rCYP1A2 relative to HLMs (CYP1A2 [4]): five-fold higher
- Ki (CYP1A2 [4]): 3740 nM
- Selectivity for CYP1A2 inhibition (CYP1A2 [4]): 25 fold

SMILES: O=C1c2ccccc2C(=O)c2c(O)c(O)cc(O)c21 [purpurin]
- IC50 [2, 7]: > 9600 nM
- IC50 (CYP1A2 [3]; [8]): 2300 nM

SMILES: Oc1ccc(/C=C/c2cc(O)cc(O)c2)cc1 [resveratrol]
- IC50 (CYP1A1): 23000 nM
- Selectivity for CYP1A1 inhibition over CYP1A2 (CYP1A1): 51 fold

SMILES: O=C(O)c1cc(O)c2c(c1)C(=O)c1cccc(O)c1C2=O [rhein]
- Maximum plasma concentration ([5]; oral dose 50 mg): 9.52 µM
- Maximum plasma concentration ([5]; oral dose 100 mg): 18.8 µM
- Ki (CYP1A2 [6]): 62000 nM

SMILES: Cc1c(O)cc2c(c1O)C(=O)c1ccccc1C2=O [rubiadin]
- IC50 [2, 7]: > 9600 nM
- IC50 (CYP1A2 [3]; [8]): 1300 nM

SMILES: Cc1cc2cc3c(C)cc(=O)oc3c(C)c2o1 [trioxsalen]
- IC50 (CYP1A2 [4]; read-out: IC50, CYP1A2): 790 nM

SMILES: O=c1cc(-c2ccccc2)oc2c1ccc1ccccc12 [α-Naphthoflavone, α-naphthoflavone]
- IC50 (CYP1A1): 60 nM
- IC50 (CYP1A1 and CYP1A2; read-out: IC50 values, CYP1A1 and CYP1A2 activities): < 500 nM
